Results reported in patent US10238633B2, “Methods for treating pulmonary emphysema using substituted 2-Aza-bicyclo[2.2.1]heptane-3-carboxylic acid (benzyl-cyano-methyl)-amides inhibitors of Cathepsin C” (Boehringer Ingelheim International GmbH, priority 2013, dated 2019).

Tested on: Neutrophil elastase activity in U937 cells
Test: Determination of neutrophil elastase activity in U937 cytosolic lysate preparation after incubation with test compound
Format: cell-based
Settings: Homo sapiens, U-937, read-out: Reduction of NE-activity in U937 cells IC50
Protocol: Determination of Neutrophil Elastase Activity in U937 Cytosolic Lysate Preparation after Incubation with Test Compound
Optiplate 384F were purchased from PerkinElmer (Prod. No. #6007270). 24 well Nunclon cell culture plates (No. 142475) and 96 well plates (No. 267245) were from Nunc. Dimethylsulfoxid (DMSO) was from Sigma (Prod. No. D8418). Nonidet-P40 (NP40) was from USBiological (Prod. No. N3500)
Substrate, specific for Neutrophil elastase, was from Bachem (MeOSuc-Ala-Ala-Pro-Val-AMC; Prod. No. 1-1270).
Human neutrophil elastase was from Calbiochem (Prod. No. 324681)
Tris-buffer (100 mM Tris; 1M NaCL; pH 7.5)
Tris-buffer+HSA 0.1%; Human Serum Albumin from Calbiochem (Cat#. 126658)
Serine-protease buffer (20 mM Tris; 100 mM NaCL; pH 7.5)+0.1% HSA
Serine protease lysis buffer: 20 mM Tris-HCL; 100 mM NaCl pH 7.5; +0.2% Nonidet-P40;
PBS: phosphate buffered saline, without Ca and Mg, from Gibco
U937 from ECACC (Cat. No. 85011440) cultured in suspension at 37° C. and 5% CO2.
Cell density: 0.2-1 Mio. Cells/ml.
Medium: RPMI1640 GlutaMAX (No. 61870) with 10% FCS from Gibco
Cell Seeding and Treatment:
Compounds in 100% DMSO were diluted in Medium (—FCS) with 10% DMSO and further diluted according to the experiment planned.
20 μl of the compound solution was transferred in the respective wells of the 24 well plate and diluted with 2 ml cell suspension/well containing […] (final concentration of DMSO=0.1%). Compound dilution factor=100
Compounds (up to 7 concentrations) were tested in triplicates with 3 wells for the DMSO 0.1% control, incubated for 48 hours without medium change at 37° C., 5% CO2 and 95% relative humidity.
Cell Harvesting and Cell Lysate:
Transfer the cell suspension in 2.2 ml Eppendorf cups. Separate cells from medium by centrifugation (400×g; 5 min; RT); discard the supernatant. Resuspend in 1 ml PBS; centrifugation (400×g; 5 min; RT); wash cells twice with PBS. Add 100 μl Serin lysis buffer (ice cold) to the cell pellet; resuspend the pellet and store on ice for 15 minutes. Remove debris by centrifugation at 15000×g for 10 min at 4° C. Transfer 80-100 μl lysate supernatant in 96 well plate and store immediately at −80° C.
Neutrophil Elastase Activity Assay:
Frozen lysates were thawn at 37° C. for 10 minutes and stored on ice. Protein content was determined with Bradford protein assay. Lysates were diluted to 0.2-0.5 mg/ml protein in serine protease buffer+HSA.
Standard: NE (100 μg/ml stock solution in Tris-buffer; stored at −80° C.) was diluted in Tris-buffer+HSA to 750 ng/ml, and further serially diluted 1:2 for the standard curve.
Buffer, blank, standard and lysate samples were transferred into 384 well plate
Blank: 5 μl Tris-buffer+10 μl Tris-buffer+HSA+5 μl Substrate
Standard: 5 μl Tris-buffer+10 μl NE (diff. conc.)+5 μl Substrate
Lysate: 5 μl Tris-buffer+10 μl Lysat+[…] Substrate
The increase in fluorescence (Ex360 nm/Em 460 nm) is determined over 30 minutes with a Molecular Device Spectramax M5 Fluorescence Reader. Kinetic Reduction (Vmax units/sec); 4 vmax points. The amount of neutrophil elastase (ng/ml) is calculated using the standard curve and the Spectramax software. The result is interpolated to ng/mg lysate protein using excel formula functions. […] IC50 is calculated using Graphpad Prism; nonlinear fitting (log(inhibitor) vs. response—Variable slope).

| SMILES | IC50 |
| --- | --- |
| CN1CC=C(c2ccc(C[C@@H](C#N)NC(=O)[C@H]3N[C@@H]4CC[C@H]3C4)c(F)c2)CC1 [Example 223] | 3 nM |
| CN1Cc2ccc(-c3ccc(C[C@@H](C#N)NC(=O)[C@H]4N[C@@H]5CC[C@H]4C5)c(F)c3)cc2C1 [Example 1, (1S,2S,4R)—N-[(1S)-1-cyano-2-[2-fluoro-4-(2-methylisoindolin-5-yl)phenyl]ethyl]-3-azabicyclo[2.2.1]heptane-2-carboxamide] | 2.3 nM |
| CN1C(=O)Cc2ccc(-c3ccc(C[C@@H](C#N)NC(=O)[C@H]4N[C@@H]5CC[C@H]4C5)c(F)c3)cc21 [Example 2, (1S,2S,4R)—N-[(1S)-1-cyano-2-[2-fluoro-4-(1-methyl-2-oxo-indolin-6-yl)phenyl]ethyl]-3-azabicyclo[2.2.1]heptane-2-carboxamide] | 6.2 nM |
| C[C@H]1CN(C)CCN1c1ccc(C[C@@H](C#N)NC(=O)[C@H]2N[C@@H]3CC[C@H]2C3)c(F)c1 [Example 188] | 4.4 nM |
| N#C[C@H](Cc1ccc([C@H]2CCN3CCOC[C@H]3C2)cc1F)NC(=O)[C@H]1N[C@@H]2CC[C@H]1C2 [Example 284] | 5.3 nM |
| CN1CCc2cc(-c3ccc(C[C@@H](C#N)NC(=O)[C@H]4N[C@@H]5CC[C@H]4C5)c(F)c3)ccc2C1=O [Example 42] | 8.3 nM |
| CN1CCC(N2C(=O)Cc3ccc(-c4ccc(C[C@@H](C#N)NC(=O)[C@H]5N[C@@H]6CC[C@H]5C6)c(F)c4)cc32)CC1 [Example 346] | 6.8 nM |
| N#CC(Cc1cc2c(=O)[nH]c3ccc(F)cc3c2cc1F)NC(=O)[C@H]1N[C@@H]2CC[C@H]1C2 (stereo partly shown) [Example 295] | 8.6 nM |
| N#C[C@H](Cc1ccc(N2C3CCC2CN(C2CCOC2)C3)cc1F)NC(=O)[C@H]1N[C@@H]2CC[C@H]1C2 (stereo partly shown) [Example 329] | 2.5 nM |
| CN1CCCN(c2ccc(C[C@@H](C#N)NC(=O)[C@H]3N[C@@H]4CC[C@H]3C4)c(F)c2)CC1 [Example 247] | 8 nM |
| N#C[C@H](Cc1ccc(N2CCN3CCOC[C@@H]3C2)cc1F)NC(=O)[C@H]1N[C@@H]2CC[C@H]1C2 [Example 249] | 16.5 nM |
| CN1CCN(S(=O)(=O)c2cc(-c3ccc(C[C@@H](C#N)NC(=O)[C@H]4N[C@@H]5CC[C@H]4C5)c(F)c3)ccc2F)CC1 [Example 339] | 0.6 nM |
| CS(=O)(=O)c1cccc(-c2ccc(C[C@@H](C#N)NC(=O)[C@H]3N[C@@H]4CC[C@H]3C4)c(F)c2)c1 [Example 4, (1S,2S,4R)—N-[(1S)-1-cyano-2-[2-fluoro-4-(3-methylsulfonylphenyl)phenyl]ethyl]-3-azabicyclo[2.2.1]heptane-2-carboxamide] | 6.4 nM |
| CN1CC2(C1)CN(c1ccc(C[C@@H](C#N)NC(=O)[C@H]3N[C@@H]4CC[C@H]3C4)c(F)c1)C2 [Example 330] | 37.7 nM |
| N#C[C@H](Cc1ccc(-c2ccc3c(c2)COC3=O)cc1F)NC(=O)[C@H]1N[C@@H]2CC[C@H]1C2 [Example 3, (1S,2S,4R)—N-[(1S)-1-cyano-2-[2-fluoro-4-(1-oxo-3H-isobenzofuran-5-yl)phenyl]ethyl]-3-azabicyclo[2.2.1]heptane-2-carboxamide] | 2.9 nM |
| N#C[C@H](Cc1ccc(-c2csc(C(=O)N3CCN(C4CC4)CC3)c2)cc1F)NC(=O)[C@H]1N[C@@H]2CC[C@H]1C2 [Example 229] | 2.9 nM |
| CN1CCC2(CC1)CC(c1ccc(C[C@@H](C#N)NC(=O)[C@H]3N[C@@H]4CC[C@H]3C4)c(F)c1)C2 [Example 358] | 3.7 nM |
| CC1CN(C)CCN1c1ccc(C[C@@H](C#N)NC(=O)[C@H]2N[C@@H]3CC[C@H]2C3)c(F)c1 (stereo partly shown) [Example 192] | 4.1 nM |
| CN(C)CCn1cc(-c2ccc(C[C@@H](C#N)NC(=O)[C@H]3N[C@@H]4CC[C@H]3C4)c(F)c2)ccc1=O [Example 342] | 24.7 nM |
| N#C[C@H](Cc1cc2c(=O)[nH]c3ccccc3c2cc1F)NC(=O)[C@H]1N[C@@H]2CC[C@H]1C2 [Example 322] | 2.1 nM |
| CN1CCN(C(=O)c2ccc(-c3ccc(C[C@@H](C#N)NC(=O)[C@H]4N[C@@H]5CC[C@H]4C5)c(F)c3)o2)CC1 [Example 289] | 3.9 nM |
| CO[C@@H]1C[C@@H]2CN(c3ccc(C[C@@H](C#N)NC(=O)[C@H]4N[C@@H]5CC[C@H]4C5)c(F)c3)CCN2C1 [Example 269] | 5.5 nM |

| SMILES | IC50 |
| --- | --- |
| CN1Cc2cc(-c3ccc(C[C@@H](C#N)NC(=O)[C@H]4N[C@@H]5CC[C@H]4C5)c(F)c3)ccc2S1(=O)=O [Example 169] | 9.1 nM |
| N#C[C@H](Cc1ccc(-c2csc(C(=O)N3CCn4nccc4C3)c2)cc1F)NC(=O)[C@H]1N[C@@H]2CC[C@H]1C2 [Example 226] | 1.8 nM |
| CNc1nc2cc(-c3ccc(C[C@@H](C#N)NC(=O)[C@H]4N[C@@H]5CC[C@H]4C5)c(F)c3)ccc2n1C [Example 253] | 5.5 nM |
| N#C[C@H](Cc1ccc(N2CCN3CCC[C@H]3C2)cc1F)NC(=O)[C@H]1N[C@@H]2CC[C@H]1C2 [Example 270] | 1.4 nM |
| N#C[C@H](Cc1ccc(N2CCN(CC3CCCO3)CC2)cc1F)NC(=O)[C@H]1N[C@@H]2CC[C@H]1C2 (stereo partly shown) [Example 154] | 4.6 nM |
| CN1CCC2(C=C(c3ccc(C[C@@H](C#N)NC(=O)[C@H]4N[C@@H]5CC[C@H]4C5)c(F)c3)C2)CC1 [Example 359] | 2.9 nM |
| N#CC(Cc1cc2c(=O)[nH]c3cc(F)ccc3c2cc1F)NC(=O)[C@H]1N[C@@H]2CC[C@H]1C2 (stereo partly shown) [Example 293] | 4.6 nM |
| Cn1c(=O)c2cc(CC(C#N)NC(=O)[C@H]3N[C@@H]4CC[C@H]3C4)ccc2c2ccc(C#N)cc21 (stereo partly shown) [Example 303] | 8.3 nM |
| N#CC(Cc1ccc2c(c1)c(=O)[nH]c1c(F)c(F)ccc12)NC(=O)[C@H]1N[C@@H]2CC[C@H]1C2 (stereo partly shown) [Example 300] | 8.9 nM |
| CN1CCCN(S(=O)(=O)c2ccc(-c3ccc(C[C@@H](C#N)NC(=O)[C@H]4N[C@@H]5CC[C@H]4C5)c(F)c3)cc2)CC1 [Example 340] | 0.8 nM |
| CS(=O)(=O)c1ccc(-c2ccc(C[C@@H](C#N)NC(=O)[C@H]3N[C@@H]4CC[C@H]3C4)c(F)c2)cc1 [Example 16] | 14.5 nM |
| N#CC(Cc1ccc(-c2ccc3c(c2)COC3=O)cc1F)NC(=O)[C@H]1N[C@@H]2CC[C@H]1C2 (stereo partly shown) [Example 11] | 8.7 nM |
| COCCN1CCN(C(=O)c2cc(-c3ccc(C[C@@H](C#N)NC(=O)[C@H]4N[C@@H]5CC[C@H]4C5)c(F)c3)cs2)CC1 [Example 228] | 4.6 nM |
| N#C[C@H](Cc1ccc(-c2ccc3c(c2)NC(=O)C3)cc1F)NC(=O)[C@H]1N[C@@H]2CC[C@H]1C2 [Example 29] | 8.8 nM |
| CN1CCN(C(=O)c2ccc(-c3ccc(C[C@@H](C#N)NC(=O)[C@H]4N[C@@H]5CC[C@H]4C5)c(F)c3)cc2)CC1 [Example 185] | 3.9 nM |
| CC(C)N1CCN(C(=O)c2cc(-c3ccc(C[C@@H](C#N)NC(=O)[C@H]4N[C@@H]5CC[C@H]4C5)c(F)c3)cs2)CC1 [Example 227] | 0.9 nM |
| CN1CCN(S(=O)(=O)c2ccc(-c3ccc(C[C@@H](C#N)NC(=O)[C@H]4N[C@@H]5CC[C@H]4C5)c(F)c3)cc2)CC1 [Example 155] | 0.5 nM |
| CN(C)C1CCCN(c2ccc(C[C@@H](C#N)NC(=O)[C@H]3N[C@@H]4CC[C@H]3C4)c(F)c2)C1 (stereo partly drawn) [Example 344, (1S,2S,4R)—N-[(1S)-1-cyano-2-[4-[3-(dimethylamino)-1-piperidyl]-2-fluoro-phenyl]ethyl]-3-azabicyclo[2.2.1]heptane-2-carboxamide] | 4.1 nM |
| N#C[C@H](Cc1ccc(-c2ccc(C(=O)N3CCn4nccc4C3)s2)cc1F)NC(=O)[C@H]1N[C@@H]2CC[C@H]1C2 [Example 237] | 9.6 nM |
| Cn1cc(-c2ccc(C[C@@H](C#N)NC(=O)[C@H]3N[C@@H]4CC[C@H]3C4)c(F)c2)ccc1=O [Example 254] | 30.5 nM |
| CN1CCC2CN(c3ccc(C[C@@H](C#N)NC(=O)[C@H]4N[C@@H]5CC[C@H]4C5)c(F)c3)CC21 (stereo partly shown) [Example 349] | 2.8 nM |
